In patent US10485235B2, “Aryloxypyrimidinyl ethers as herbicides” (FMC Corporation, priority 2015, dated 2019):

What was measured:
[1] = system: barnyardgrass (Echinochloa crus-galli); assay: Test A postemergence, barnyardgrass; assay type: in vivo; settings: Echinochloa crus-galli, post-emergence, 240 h, postemergence, 0 to 100 scale, 0 is no effect, 100 is complete control, approximately 10 days, read-out: Plant response rating, Barnyardgrass; for pest or weed control at 31 g/ha: 31 g ai/ha; for pest or weed control at 125 g/ha: 125 g ai/ha; for pest or weed control at 500 g/ha: 500 g ai/ha
Method in brief: (§1)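 Compounds, formulated in a surfactant-containing solvent mixture that is non-phytotoxic, are sprayed onto soil after seeding (preemergence) or onto young plants, one to two leaves and 2 to 10 cm high (postemergence). Response is scored visually after around 10 days, where 0 means no effect and 100 means complete control.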

kochia (Kochia scoparia) = assay: Test A preemergence, kochia; assay type: in vivo; settings: Bassia scoparia, pre-emergence, 240 h, Preemergence, 0 to 100 scale (0 no effect, 100 complete control), read-out: Plant response rating, Kochia; for pest or weed control at 31 g/ha: 31 g ai/ha; for pest or weed control at 125 g/ha: 125 g ai/ha; for pest or weed control at 500 g/ha: 500 g ai/ha
Method in brief: as §1

[2] = system: ryegrass, Italian (Italian ryegrass, Lolium multiflorum); assay: Test A preemergence, Italian ryegrass; assay type: in vivo; settings: Lolium multiflorum, pre-emergence, 240 h, Preemergence, 0 to 100 scale (0 no effect, 100 complete control), read-out: Plant response rating, Ryegrass, Italian; for pest or weed control at 31 g/ha: 31 g ai/ha; for pest or weed control at 125 g/ha: 125 g ai/ha; for pest or weed control at 500 g/ha: 500 g ai/ha
Method in brief: as §1

corn (Zea mays) = assay: Test A postemergence, corn; assay type: in vivo; settings: Zea mays, post-emergence, 240 h, postemergence, 0 to 100 scale, 0 is no effect, 100 is complete control, approximately 10 days; for Corn plant response rating (crop injury, 0 = no effect, 100 = complete kill) at 31 g/ha: 31 g ai/ha; for Corn plant response rating (crop injury, 0 = no effect, 100 = complete kill) at 125 g/ha: 125 g ai/ha; for Corn plant response rating (crop injury, 0 = no effect, 100 = complete kill) at 500 g/ha: 500 g ai/ha
Method in brief: as §1

[3] = system: barnyardgrass (Echinochloa crus-galli); assay: Test A preemergence, barnyardgrass; assay type: in vivo; settings: Echinochloa crus-galli, pre-emergence, 240 h, Preemergence, 0 to 100 scale (0 no effect, 100 complete control), read-out: Plant response rating, Barnyardgrass; for pest or weed control at 31 g/ha: 31 g ai/ha; for pest or weed control at 125 g/ha: 125 g ai/ha; for pest or weed control at 500 g/ha: 500 g ai/ha
Method in brief: as §1

[4] = system: ducksalad (Heteranthera limosa); assay: Test B flooded paddy test, ducksalad; assay type: in vivo; settings: Heteranthera limosa; 250 g ai/ha, Flood; visual rating after 13 to 15 days; scale 0 to 100, 0 is no effect, 100 is complete control; read-out: Plant response rating, Ducksalad
Method in brief: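 Plants grown to 2-leaf stage, pots flooded to 3 cm above soil and compound applied directly to paddy water, depth maintained throughout. After 13-15 days in greenhouse, visual rating against untreated controls on 0-100 scale (0 no effect, 100 complete control).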

Structure (SMILES) | pest or weed control at 31 g/ha [1] | pest or weed control at 125 g/ha [1] | pest or weed control at 31 g/ha (kochia (Kochia scoparia)) | pest or weed control at 125 g/ha (kochia (Kochia scoparia)) | pest or weed control at 31 g/ha [2] | pest or weed control at 125 g/ha [2] | Corn plant response rating (crop injury, 0 = no effect, 100 = complete kill) at 31 g/ha (corn (Zea mays)) | Corn plant response rating (crop injury, 0 = no effect, 100 = complete kill) at 125 g/ha (corn (Zea mays)) | pest or weed control at 31 g/ha [3] | pest or weed control at 125 g/ha [3] | pest or weed control at 250 g/ha [4] | melting point | pest or weed control at 500 g/ha [1] | pest or weed control at 500 g/ha (kochia (Kochia scoparia)) | pest or weed control at 500 g/ha [2] | Corn plant response rating (crop injury, 0 = no effect, 100 = complete kill) at 500 g/ha (corn (Zea mays)) | pest or weed control at 500 g/ha [3]
N#Cc1cccc(Oc2ncc(Cl)cn2)c1OCC(F)(F)F [Compound 1] | 0% | 30% | 60% | 100% | 0% | 10% | 10% | 10% | 10% | 80% | – | – | – | – | – | – | –
N#Cc1cccc(Oc2ncc(F)cn2)c1OCCCC(F)(F)F [Compound 4, 3-[(5-fluoro-2-pyrimidinyl)oxy]-2-(4,4,4-trifluorobutoxy)benzonitrile] | 20% | 90% | 40% | 90% | 10% | 60% | 40% | 90% | 60% | 100% | 90% | 70 to 74 °C | – | – | – | – | –
N#Cc1cccc(Oc2ncc(Cl)cn2)c1OCCCC(F)(F)F [Compound 5, 3-[(5-chloro-2-pyrimidinyl)oxy]-2-(4,4,4-trifluorobutoxy)benzonitrile] | 70% | 100% | 90% | 100% | 20% | 60% | 50% | 80% | 80% | 100% | 90% | 51 to 54 °C | – | – | – | – | –
N#Cc1cccc(Oc2ncc(Cl)cn2)c1OCC(F)(F)C(F)(F)F [Compound 10, 3-[(5-chloro-2-pyrimidinyl)oxy]-2-(2,2,3,3,3-pentafluoropropoxy)benzonitrile] | – | 90% | – | 100% | – | 40% | – | 70% | – | 100% | 70% | – | 100% | 100% | 100% | 100% | 100%
CCCCOc1c(Br)cccc1Oc1ncc(Cl)cn1 [Compound 13, 2-[3-bromo-2-(butoxy)phenoxy]-5-chloropyrimidine] | – | 90% | – | 80% | – | 10% | – | 30% | – | 100% | 50% | – | 100% | 100% | 90% | 90% | 100%
FC(F)C(F)(F)COc1c(Br)cccc1Oc1ncc(Cl)cn1 [Compound 18, 2-[3-bromo-2-(2,2,3,3-tetrafluoropropoxy)phenoxy]-5-chloropyrimidine] | – | 30% | – | 30% | – | 10% | – | 20% | – | 100% | 30% | – | 100% | 100% | 100% | 30% | 100%
N#Cc1cccc(Oc2ncc(Cl)cn2)c1OCCC(F)(F)F [Compound 23, 3-[(5-chloro-2-pyrimidinyl)oxy]-2-(3,3,3-trifluoropropoxy)benzonitrile] | 50% | 90% | 100% | 100% | 0% | 30% | 10% | 90% | 70% | 100% | 100% | – | – | – | – | – | –
Fc1cccc(Oc2ncc(Cl)cn2)c1OCC(F)(F)F [Compound 28] | – | 0% | – | 0% | – | 0% | – | 0% | – | 10% | 30% | – | 20% | 20% | 20% | 10% | 70%
CCCCOc1c(C#N)cccc1Oc1ncc(Cl)cn1 [Compound 35, 2-butoxy-3-[(5-chloro-2-pyrimidinyl)oxy]benzonitrile] | – | 80% | – | 100% | – | 30% | – | 20% | – | 100% | 65% | – | 100% | 100% | 90% | 70% | 100%
N#Cc1cccc(Oc2ncc(F)cn2)c1OCC(F)(F)F [Compound 41] | 0% | 0% | 50% | 100% | 0% | 10% | 0% | 10% | 0% | 40% | – | 58 to 63 °C | – | – | – | – | –
FC(F)(F)COc1c(Cl)cccc1Oc1ncc(Cl)cn1 [Compound 42] | 0% | 10% | 0% | 10% | 0% | 0% | 0% | 10% | 0% | 10% | 70% | – | – | – | – | – | –
Cc1cccc(Oc2ncc(Cl)cn2)c1OCC(F)(F)F [Compound 63] | 0% | 0% | 0% | 0% | 0% | 0% | 0% | 0% | 0% | 0% | 100% | – | – | – | – | – | –
